The source made the active and inactive calls. The calls are words filed in the database; no cut-off is given here.
What was measured:
[1] = test system: L02; assay: Cytoprotective activity against APAP-induced oxidative stress in human L02 cells assessed as decrease in MDA activity at 5 to 10 uM preincubated for 12 hrs followed by APAP stimulation and measured after 24 hrs; format: functional, cell-based
[2] = test system: L02; assay: Cytotoxicity against human L02 cells assessed as reduction in cell viability up to 100 uM measured after 48 hrs by MTT assay; format: cell-based; details: l02, 48 h
[3] = test system: L02; assay: Cytoprotective activity against APAP-induced oxidative stress in human L02 cells assessed as increase in GSH/GSSG ratio at 5 to 10 uM preincubated for 12 hrs followed by APAP stimulation and measured after 24 hrs; format: functional, cell-based
[4] = biological target: T1, Nuclear factor erythroid 2-related factor 2 (Homo sapiens) (UniProt Q16236); assay: Activation of Nrf2 in human L02 cells harboring control siRNA assessed as increase in HO-1 mRNA expression at 10 uM measured after 10 hrs by trizol reagent based qRT-PCR analysis; format: cell-based
T1 sequence (whole entry): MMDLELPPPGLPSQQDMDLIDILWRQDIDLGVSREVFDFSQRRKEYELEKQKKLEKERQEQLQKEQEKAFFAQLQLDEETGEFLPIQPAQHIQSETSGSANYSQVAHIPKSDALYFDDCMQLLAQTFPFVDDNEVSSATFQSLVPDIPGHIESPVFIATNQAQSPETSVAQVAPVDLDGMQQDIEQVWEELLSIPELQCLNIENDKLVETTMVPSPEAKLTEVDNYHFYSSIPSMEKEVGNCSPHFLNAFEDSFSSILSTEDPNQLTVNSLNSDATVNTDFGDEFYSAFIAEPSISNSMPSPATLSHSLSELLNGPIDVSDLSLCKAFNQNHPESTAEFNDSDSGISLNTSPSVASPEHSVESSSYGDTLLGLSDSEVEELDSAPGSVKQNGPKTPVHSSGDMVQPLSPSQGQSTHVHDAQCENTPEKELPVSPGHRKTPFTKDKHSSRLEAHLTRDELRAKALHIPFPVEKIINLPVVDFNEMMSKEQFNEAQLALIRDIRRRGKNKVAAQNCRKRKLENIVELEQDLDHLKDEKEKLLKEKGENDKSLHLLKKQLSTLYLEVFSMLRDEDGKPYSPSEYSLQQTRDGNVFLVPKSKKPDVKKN

[5] = test system: Mus musculus; assay: Protection against APAP-induced hepatotoxicity in C57BL/6 mouse assessed as decrease in disease score at 10 to 40 mg/kg, ip treated 2 hrs prior to 22 hrs starvation followed by APAP challenge and measured after 6 hrs by H and E staining-based light microscopic analysis; format: functional, organism-based
[6] = test system: Mus musculus; assay: Protection against APAP-induced hepatotoxicity in C57BL/6 mouse assessed as destruction of liver structure at 10 to 40 mg/kg, ip treated 2 hrs prior to 22 hrs starvation followed by APAP challenge and measured after 6 hrs by H and E staining-based light microscopic analysis; format: functional, organism-based
[7] = biological target: T1, Nuclear factor erythroid 2-related factor 2 (Homo sapiens); assay: Activation of Nrf2 in human L02 cells assessed as increase in HO-1 mRNA expression measured after 12 hrs by trizol reagent based qRT-PCR analysis; format: cell-based
[8] = test system: L02; assay: Upregulation of HO-1 expression in human L02 cells harboring Nrf2 siRNA at 10 uM measured after 10 hrs by Western blot analysis; format: functional, cell-based
[9] = biological target: T1, Nuclear factor erythroid 2-related factor 2 (Homo sapiens); assay: Activation of Nrf2 in human L02 cells harboring control siRNA assessed as increase in HO-1 expression at 10 uM measured after 10 hrs by Western blot analysis; format: cell-based
[10] = test system: Mus musculus; assay: Protection against APAP-induced hepatotoxicity in C57BL/6 mouse assessed as decrease in MDA activity in liver at 10 to 40 mg/kg, ip treated 2 hrs prior to 22 hrs starvation followed by APAP challenge and measured after 6 hrs; format: functional, organism-based
[11] = test system: Mus musculus; assay: Protection against APAP-induced hepatotoxicity in C57BL/6 mouse assessed as decrease in total bilirubin level at 10 mg/kg, ip treated 2 hrs prior to 22 hrs starvation followed by APAP challenge and measured after 6 hrs; format: functional, organism-based
[12] = test system: Mus musculus; assay: Protection against APAP-induced hepatotoxicity in C57BL/6 mouse assessed as decrease in TNFalpha production at 10 mg/kg, ip treated 2 hrs prior to 22 hrs starvation followed by APAP challenge and measured after 6 hrs; format: functional, organism-based
[13] = biological target: T1, Nuclear factor erythroid 2-related factor 2 (Homo sapiens); assay: Activation of Nrf2 in human L02 cells harboring control siRNA assessed as increase in GCLM mRNA expression at 10 uM measured after 10 hrs by trizol reagent based qRT-PCR analysis; format: cell-based
[14] = test system: Mus musculus; assay: Protection against APAP-induced hepatotoxicity in C57BL/6 mouse assessed as decrease in ALP level at 10 mg/kg, ip treated 2 hrs prior to 22 hrs starvation followed by APAP challenge and measured after 6 hrs; format: functional, organism-based
[15] = biological target: T1, Nuclear factor erythroid 2-related factor 2 (Homo sapiens); assay: Activation of Nrf2 in human L02 cells assessed as increase in NQO-1 expression at 10 uM measured after 4 to 72 hrs hrs by Western blot analysis; format: cell-based
[16] = biological target: T1, Nuclear factor erythroid 2-related factor 2 (Homo sapiens); assay: Activation of Nrf2 in human L02 cells assessed as increase in NQO-1 mRNA expression at 10 uM measured after 8 to 24 hrs by trizol reagent based qRT-PCR analysis; format: cell-based
[17] = biological target: T1, Nuclear factor erythroid 2-related factor 2 (Homo sapiens); assay: Activation of Nrf2 in human L02 cells assessed as increase in GCLM expression at 10 uM measured after 4 to 72 hrs hrs by Western blot analysis; format: cell-based
[18] = test system: L02; assay: Upregulation of NEFL2L expression in human L02 cells harboring Nrf2 siRNA at 10 uM measured after 10 hrs by Western blot analysis; format: functional, cell-based
[19] = test system: L02; assay: Cytoprotective activity against APAP-induced hepatotoxicity in human L02 cells harboring Nrf2 siRNA assessed as increase in cell viability at 5 to 10 uM preincubated for 12 hrs followed by APAP addition and measured after 24 hrs by MTT assay; format: functional, cell-based
[20] = test system: L02; assay: cells; details: Homo sapiens, L02, read-out: Activity
Description: Cytoprotective activity against APAP-induced apoptosis in human L02 cells assessed as viable cells at 10 uM preincubated for 12 hrs followed by APAP addition and measured after 12 hrs by FITC-Annexin V/propidium iodide staining based flow cytometry (Rvb = 50.6%)

[21] = biological target: T1, Nuclear factor erythroid 2-related factor 2 (Homo sapiens); assay: Activation of Nrf2 in human L02 cells assessed as increase in NQO-1 mRNA expression measured after 12 hrs by trizol reagent based qRT-PCR analysis; format: cell-based
[22] = test system: L02; assay: Upregulation of NQO-1 mRNA expression in human L02 cells harboring Nrf2 siRNA at 10 uM measured after 10 hrs by trizol reagent based qRT-PCR analysis; format: functional, cell-based
[23] = biological target: T1, Nuclear factor erythroid 2-related factor 2 (Homo sapiens); assay: Activation of Nrf2 in human L02 cells harboring control siRNA assessed as increase in NQO-1 mRNA expression at 10 uM measured after 10 hrs by trizol reagent based qRT-PCR analysis; format: cell-based
[24] = test system: L02; assay: Cytoprotective activity against APAP-induced oxidative stress in human L02 cells assessed as decrease in ALT level at 5 to 10 uM preincubated for 12 hrs followed by APAP stimulation and measured after 24 hrs; format: functional, cell-based
[25] = biological target: T1, Nuclear factor erythroid 2-related factor 2 (Homo sapiens); assay: Activation of Nrf2 in human L02 cells harboring control siRNA assessed as increase in GCLM expression at 10 uM measured after 10 hrs by Western blot analysis; format: cell-based
[26] = biological target: T1, Nuclear factor erythroid 2-related factor 2 (Homo sapiens); assay: Activation of Nrf2 in human L02 cells assessed as increase in HO-1 expression measured after 12 hrs by Western blot analysis; format: cell-based
[27] = test system: L02; assay: Upregulation of HO-1 mRNA expression in human L02 cells harboring Nrf2 siRNA at 10 uM measured after 10 hrs by trizol reagent based qRT-PCR analysis; format: functional, cell-based

SMILES: COc1ccc(S(=O)(=O)N(CC(=O)O)c2ccc(N3CCC[C@H]3C(=O)O)c3ccccc23)cc1
- Activity [1]: Active
- Activity [2]: Non-Toxic
- Activity [3]: Active
- Activity [4]: Active
- Activity [5]: Active
- Activity [6]: Active
- Activity [7]: Dose-dependent effect
- Activity [8]: inactive
- Activity [9]: Active
- Activity [10]: Active
- Activity [11]: Active
- Activity [12]: Active
- Activity [13]: Active
- Activity [14]: Active
- Activity [15]: Active
- Activity [16]: Active
- Activity [17]: Active
- Activity [18]: inactive
- Activity [19]: inactive
- viability at 10 µM [20]: 76%
- Activity [21]: Dose-dependent effect
- Activity [22]: inactive
- Activity [23]: Active
- Activity [24]: Active
- Activity [25]: Active
- Activity [26]: Dose-dependent effect
- Activity [27]: inactive

Reference: ChEMBL document CHEMBL4364299, “Discovery of a Potent Kelch-Like ECH-Associated Protein 1-Nuclear Factor Erythroid 2-Related Factor 2 (Keap1-Nrf2) Protein-Protein Interaction Inhibitor with Natural Proline Structure as a Cytoprotective Agent against Acetaminophen-Induced Hepatotoxicity” (J Med Chem, 2019)
